Consider five compounds from ChEMBL document CHEMBL5465560, “Selectivity Literature for EUbOPEN Chemogenomic Library” (2024).

Assay [1] addresses STE20/SPS1-related proline-alanine-rich protein kinase (Homo sapiens) (UniProt Q9UEW8). Nature of the assay: Selectivity interaction (Ambit KINOMEscan and KiNATiv profiling in Jurkat cells) EUB0000090b STK39. The conditions noted are these: at 1 µM. It is filed as cell-based.
Assay [2] addresses 5'-AMP-activated protein kinase catalytic subunit alpha-2 (Homo sapiens) (UniProt P54646). The conditions noted are these: at 10 µM.
The target of assay [3] is T1, Mitogen-activated protein kinase kinase kinase 6 (Homo sapiens) (UniProt O95382).
T1 sequence (whole entry): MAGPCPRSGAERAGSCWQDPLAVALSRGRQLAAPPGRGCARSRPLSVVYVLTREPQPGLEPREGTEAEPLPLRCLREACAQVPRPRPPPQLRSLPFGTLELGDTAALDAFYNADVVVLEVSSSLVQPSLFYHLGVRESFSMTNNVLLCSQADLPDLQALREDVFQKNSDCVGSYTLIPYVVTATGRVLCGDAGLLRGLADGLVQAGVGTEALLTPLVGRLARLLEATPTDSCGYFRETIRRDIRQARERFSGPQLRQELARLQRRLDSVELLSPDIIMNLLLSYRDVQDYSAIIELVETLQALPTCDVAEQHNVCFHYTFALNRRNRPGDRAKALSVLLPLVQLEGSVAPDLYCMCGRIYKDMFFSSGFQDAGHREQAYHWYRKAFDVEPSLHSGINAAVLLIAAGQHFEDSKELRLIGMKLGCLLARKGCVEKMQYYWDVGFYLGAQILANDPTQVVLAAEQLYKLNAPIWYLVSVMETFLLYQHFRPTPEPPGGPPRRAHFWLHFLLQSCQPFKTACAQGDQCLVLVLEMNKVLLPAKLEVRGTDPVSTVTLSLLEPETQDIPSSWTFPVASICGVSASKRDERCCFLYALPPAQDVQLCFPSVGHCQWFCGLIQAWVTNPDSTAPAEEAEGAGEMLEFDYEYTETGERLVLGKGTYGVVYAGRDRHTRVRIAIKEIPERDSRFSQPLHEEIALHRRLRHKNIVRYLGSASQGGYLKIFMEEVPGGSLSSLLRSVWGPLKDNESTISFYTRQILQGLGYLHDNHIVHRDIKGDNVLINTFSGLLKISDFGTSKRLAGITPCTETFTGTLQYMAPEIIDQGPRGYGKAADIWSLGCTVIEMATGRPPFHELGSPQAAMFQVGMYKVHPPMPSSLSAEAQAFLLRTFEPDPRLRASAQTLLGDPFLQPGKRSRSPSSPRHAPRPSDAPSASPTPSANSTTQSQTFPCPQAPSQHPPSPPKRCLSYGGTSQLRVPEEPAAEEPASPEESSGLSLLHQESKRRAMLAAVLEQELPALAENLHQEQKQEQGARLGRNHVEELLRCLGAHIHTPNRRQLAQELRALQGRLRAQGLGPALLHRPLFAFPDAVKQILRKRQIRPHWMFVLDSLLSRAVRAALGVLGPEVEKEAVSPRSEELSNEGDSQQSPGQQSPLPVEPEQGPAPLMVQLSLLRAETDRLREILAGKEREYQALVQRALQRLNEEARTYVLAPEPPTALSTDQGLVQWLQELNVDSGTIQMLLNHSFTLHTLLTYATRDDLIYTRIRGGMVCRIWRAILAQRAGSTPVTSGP
The experiment in a line: Selectivity interaction (KinomeScan (DiscoverX)) EUB0000666a MAP3K6. Particulars: at 10 µM.

Assay [4] deals with Insulin-like growth factor 1 receptor (Homo sapiens, UniProt P08069). Particulars: at 3 µM.
In assay [5] the target is T2, Ephrin type-B receptor 2 (Homo sapiens) (UniProt P29323).
T2 sequence (whole entry): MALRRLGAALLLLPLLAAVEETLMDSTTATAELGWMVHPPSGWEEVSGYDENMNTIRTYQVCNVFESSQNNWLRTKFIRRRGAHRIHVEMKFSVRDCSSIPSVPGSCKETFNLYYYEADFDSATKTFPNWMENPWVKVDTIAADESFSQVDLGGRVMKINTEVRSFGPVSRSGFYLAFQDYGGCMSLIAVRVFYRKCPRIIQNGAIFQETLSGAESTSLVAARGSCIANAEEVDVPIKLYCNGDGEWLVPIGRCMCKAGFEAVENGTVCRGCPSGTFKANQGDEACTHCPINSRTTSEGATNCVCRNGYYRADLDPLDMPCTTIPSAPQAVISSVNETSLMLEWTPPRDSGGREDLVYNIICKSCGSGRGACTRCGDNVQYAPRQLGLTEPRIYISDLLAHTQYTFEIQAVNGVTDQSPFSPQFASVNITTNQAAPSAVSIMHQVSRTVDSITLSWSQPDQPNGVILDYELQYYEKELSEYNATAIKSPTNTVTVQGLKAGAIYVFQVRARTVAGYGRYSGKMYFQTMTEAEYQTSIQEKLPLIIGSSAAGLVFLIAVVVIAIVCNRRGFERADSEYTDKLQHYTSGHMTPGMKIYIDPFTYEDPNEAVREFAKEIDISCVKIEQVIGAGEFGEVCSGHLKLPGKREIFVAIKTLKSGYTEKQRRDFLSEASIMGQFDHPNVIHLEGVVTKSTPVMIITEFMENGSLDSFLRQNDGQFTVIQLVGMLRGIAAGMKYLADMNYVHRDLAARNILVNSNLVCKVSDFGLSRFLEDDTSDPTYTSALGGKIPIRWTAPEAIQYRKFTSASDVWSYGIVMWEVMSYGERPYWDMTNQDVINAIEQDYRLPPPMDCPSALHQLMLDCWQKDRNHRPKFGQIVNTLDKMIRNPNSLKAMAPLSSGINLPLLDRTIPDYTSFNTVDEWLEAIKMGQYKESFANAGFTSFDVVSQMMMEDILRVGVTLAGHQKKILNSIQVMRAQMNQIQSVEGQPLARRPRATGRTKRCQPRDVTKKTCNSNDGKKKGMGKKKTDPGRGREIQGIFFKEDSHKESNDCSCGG
Nature of the assay: Selectivity interaction (KinomeScan (DiscoverX)) EUB0001049a EPHB2. The conditions noted are these: at 1 µM.

Insulin-like growth factor 1 receptor, sequence (P08069 31-736 limits assumed): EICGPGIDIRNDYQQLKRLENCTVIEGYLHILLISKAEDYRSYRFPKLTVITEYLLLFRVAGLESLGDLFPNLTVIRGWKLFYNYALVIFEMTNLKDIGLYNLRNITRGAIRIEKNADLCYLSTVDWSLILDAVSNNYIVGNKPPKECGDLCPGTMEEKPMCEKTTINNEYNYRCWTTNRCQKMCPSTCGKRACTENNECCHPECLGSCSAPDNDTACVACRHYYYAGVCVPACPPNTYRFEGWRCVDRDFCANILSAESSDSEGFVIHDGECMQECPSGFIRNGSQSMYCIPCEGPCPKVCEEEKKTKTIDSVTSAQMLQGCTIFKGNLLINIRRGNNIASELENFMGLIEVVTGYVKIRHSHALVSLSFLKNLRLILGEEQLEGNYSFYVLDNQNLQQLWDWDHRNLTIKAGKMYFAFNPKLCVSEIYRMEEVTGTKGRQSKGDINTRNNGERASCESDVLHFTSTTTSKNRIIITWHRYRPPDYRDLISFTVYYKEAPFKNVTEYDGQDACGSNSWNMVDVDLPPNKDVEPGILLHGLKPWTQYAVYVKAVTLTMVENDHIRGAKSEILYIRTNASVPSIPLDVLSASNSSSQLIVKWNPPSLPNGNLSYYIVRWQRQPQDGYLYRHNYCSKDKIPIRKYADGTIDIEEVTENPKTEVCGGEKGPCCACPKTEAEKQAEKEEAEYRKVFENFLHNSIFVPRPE
Insulin-like growth factor 1 receptor, sequence (P08069 741-1367 limits assumed): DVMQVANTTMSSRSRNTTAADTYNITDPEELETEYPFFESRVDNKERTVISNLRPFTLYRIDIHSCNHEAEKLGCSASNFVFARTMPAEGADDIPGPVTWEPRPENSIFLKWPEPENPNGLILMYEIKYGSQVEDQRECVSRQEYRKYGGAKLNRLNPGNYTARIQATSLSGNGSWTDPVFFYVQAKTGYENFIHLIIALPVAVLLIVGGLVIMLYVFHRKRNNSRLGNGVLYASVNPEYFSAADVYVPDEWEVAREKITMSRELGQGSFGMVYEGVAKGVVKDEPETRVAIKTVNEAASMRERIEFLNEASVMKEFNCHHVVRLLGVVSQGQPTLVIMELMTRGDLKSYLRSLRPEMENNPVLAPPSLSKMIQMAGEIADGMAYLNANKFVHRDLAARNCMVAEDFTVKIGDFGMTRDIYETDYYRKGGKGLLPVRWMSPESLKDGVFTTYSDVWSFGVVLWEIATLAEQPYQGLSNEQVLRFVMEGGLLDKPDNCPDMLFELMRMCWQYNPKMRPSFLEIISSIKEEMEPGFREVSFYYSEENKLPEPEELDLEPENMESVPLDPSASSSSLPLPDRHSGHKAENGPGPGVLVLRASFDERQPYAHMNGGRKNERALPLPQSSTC
5'-AMP-activated protein kinase catalytic subunit alpha-2 (Homo sapiens), sequence (P54646 whole entry, looked up): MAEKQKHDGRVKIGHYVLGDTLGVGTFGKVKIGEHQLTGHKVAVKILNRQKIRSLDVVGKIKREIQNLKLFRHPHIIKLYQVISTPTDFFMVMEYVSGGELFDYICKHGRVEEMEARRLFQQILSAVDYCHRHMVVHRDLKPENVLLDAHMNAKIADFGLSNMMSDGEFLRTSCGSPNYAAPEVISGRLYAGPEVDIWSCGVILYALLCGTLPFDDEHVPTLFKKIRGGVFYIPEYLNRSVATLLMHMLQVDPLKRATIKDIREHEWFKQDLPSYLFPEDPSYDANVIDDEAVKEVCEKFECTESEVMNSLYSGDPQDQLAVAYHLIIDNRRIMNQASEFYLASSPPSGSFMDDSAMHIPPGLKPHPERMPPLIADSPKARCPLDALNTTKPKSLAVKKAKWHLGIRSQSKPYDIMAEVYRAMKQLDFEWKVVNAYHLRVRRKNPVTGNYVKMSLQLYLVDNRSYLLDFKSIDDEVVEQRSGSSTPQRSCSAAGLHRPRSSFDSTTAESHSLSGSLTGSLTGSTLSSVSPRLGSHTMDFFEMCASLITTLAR

In assay [1], `CN(C)C/C=C/C(=O)Nc1ccc(C(=O)N2CCCC(Nc3ncc(Cl)c(-c4c[nH]c5ccccc45)n3)C2)cc1` (stereo not given) yielded a % of control of 95%.

In assay [2], `Cc1cc([C@@H](C)Nc2ccccc2C(=O)O)c2nc(N3CCOCC3)cc(=O)n2c1` [AZD-6482] displayed a % of control of 88%.

For the compound `O=C(NOC[C@H](O)CO)c1ccc(F)c(F)c1Nc1ccc(I)cc1F`, in assay [3], the % of control is 95%.

Take `CCc1cc(Nc2nccc(-c3c(-c4ccc(OC)c(C(=O)Nc5c(F)cccc5F)c4)nc4ccccn34)n2)c(OC)cc1N1CCC(N2CCN(S(C)(=O)=O)CC2)CC1`: in assay [4], the % of inhibition came out at 100%.

For `COc1cc(Nc2nc(C)cc(-c3cnn4nc(OC)ccc34)n2)cc(C(F)(F)F)c1`, the % of control in assay [5] came to 92%.
